The source made the active and inactive calls. No cut-off for these calls is given here.
What was measured:
[1] = system: Staphylococcus aureus; experiment: Antibacterial activity against Staphylococcus aureus ATCC 29213 at 200 ug/disk; type: functional; details: read-out: IZ
[2] = system: Bacillus subtilis; experiment: Antibacterial activity against Bacillus subtilis ATCC 6051 at 200 ug/disk; type: functional; details: read-out: IZ
[3] = system: Ascobolus; experiment: Antifungal activity against Ascobolus furfuraceus NRRL 6460 assessed as inhibition of radial growth rate at 200 ug/disk relative to control; type: functional; parameters: scale not given: the % may be the effect or the level left
[4] = system: Candida albicans; experiment: Antifungal activity against Candida albicans ATCC 14053 at 200 ug/disk; type: functional, organism-based

Structure (SMILES): C[C@H]1CC[C@@H]2[C@@H](C(=O)c3c(O)c([C@]4(O)CC[C@@H](O)[C@H]5O[C@H]54)c[nH]c3=O)[C@@H](C)C=C[C@H]2C1 [APIOSPORAMIDE]
- zone of inhibition at 200 µg/disc [1]: 21 mm
- zone of inhibition at 200 µg/disc [2]: 32 mm
- Activity [3]: 53%
- Activity [4]: inactive

Source: ChEMBL document CHEMBL1150075, “Apiosporamide, a new antifungal agent from the coprophilous fungus Apiospora montagnei” (1994)
